From PubChem BioAssay AID1963961 (Molecular Pharmacology Branch, DTP, NCI, 2024)

Tested on: K98450-129-R-PDC multicell spheroids, viability
Assay: Anticancer human tumor K98450-129-R-PDC patient-derived colon adenocarcinoma cell line growth inhibition [PI3K]
Settings: for viability, T/C: stronger effect = lower value
Outline: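 Viability of mixed-cell spheroids was determined after exposure to pairwise combinations, one partner being inavolisib, alpelisib, duvelisib or copanlisib. Highest tested concentration matched clinical Cmax where known and 10 microM where not, descending in half-log steps.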

[1] = curve of first compound, second compound 0.0316 µM
[2] = curve of first compound, second compound 0.1 µM
[3] = curve of first compound, second compound 0.316 µM
[4] = curve of first compound, second compound 1 µM
[5] = second compound 0.0316 µM, first compound 0.0316 µM
[6] = second compound 0.0316 µM, first compound 0.1 µM
[7] = second compound 0.0316 µM, first compound 0.316 µM
[8] = second compound 0.0316 µM, first compound 1 µM
[9] = second compound 0.0316 µM, first compound 3.16 µM
[10] = second compound 0.0316 µM, first compound 10 µM
[11] = second compound 0.1 µM, first compound 0.0316 µM
[12] = second compound 0.1 µM, first compound 0.1 µM
[13] = second compound 0.1 µM, first compound 0.316 µM
[14] = second compound 0.1 µM, first compound 1 µM
[15] = second compound 0.1 µM, first compound 3.16 µM
[16] = second compound 0.1 µM, first compound 10 µM
[17] = second compound 0.316 µM, first compound 0.0316 µM
[18] = second compound 0.316 µM, first compound 0.1 µM
[19] = second compound 0.316 µM, first compound 0.316 µM
[20] = second compound 0.316 µM, first compound 1 µM
[21] = second compound 0.316 µM, first compound 3.16 µM
[22] = second compound 0.316 µM, first compound 10 µM
[23] = second compound 1 µM, first compound 0.0316 µM
[24] = second compound 1 µM, first compound 0.1 µM
[25] = second compound 1 µM, first compound 0.316 µM
[26] = second compound 1 µM, first compound 1 µM
[27] = second compound 1 µM, first compound 3.16 µM
[28] = second compound 1 µM, first compound 10 µM
[29] = curve of first compound, second compound 3.16 µM
[30] = curve of first compound, second compound 10 µM
[31] = second compound 3.16 µM, first compound 0.0316 µM
[32] = second compound 3.16 µM, first compound 0.1 µM
[33] = second compound 3.16 µM, first compound 0.316 µM
[34] = second compound 3.16 µM, first compound 1 µM
[35] = second compound 10 µM, first compound 0.0316 µM
[36] = second compound 10 µM, first compound 0.1 µM
[37] = second compound 10 µM, first compound 0.316 µM
[38] = second compound 10 µM, first compound 1 µM
[39] = second compound 3.16 µM, first compound 3.16 µM
[40] = second compound 3.16 µM, first compound 10 µM
[41] = second compound 10 µM, first compound 3.16 µM
[42] = second compound 10 µM, first compound 10 µM
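Further: spheroids exposed to agents for seven days before read-out.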

In the case of Cn1nccc1Nc1nccc(-c2ccn(C(CO)c3ccc(Cl)c(F)c3)c(=O)c2)n1 (stereo not given) + COc1c(OCCCN2CCOCC2)ccc2c3n(c(=NC(=O)c4cnc(N)nc4)nc12)CCN3, the IC50 (curve of first compound, second compound 0.00316 µM) is reported as greater than 10 µM, the IC50 (curve of first compound, second compound 0.01 µM) is reported as greater than 10 µM and the IC50 [1] is reported as greater than 10 µM. It also gave an IC50 [2] of 7.85 µM, an IC50 [3] of 8.33 µM and an IC50 [4] of 0.272 µM. For the same compound, the viability, T/C (second compound 0.00316 µM, first compound 0.0316 µM) was 101%, the viability, T/C (second compound 0.00316 µM, first compound 0.1 µM) was 97.7% and the viability, T/C (second compound 0.00316 µM, first compound 0.316 µM) was 89.3%. For the same compound, the viability, T/C (second compound 0.00316 µM, first compound 1 µM) was 88.5%, the viability, T/C (second compound 0.00316 µM, first compound 3.16 µM) was 93.6% and the viability, T/C (second compound 0.00316 µM, first compound 10 µM) was 69.2%. For the same compound, the viability, T/C (second compound 0.01 µM, first compound 0.0316 µM) was 99.1%, the viability, T/C (second compound 0.01 µM, first compound 0.1 µM) was 82% and the viability, T/C (second compound 0.01 µM, first compound 0.316 µM) was 79.7%. The viability, T/C (second compound 0.01 µM, first compound 1 µM) was 79.9%, the viability, T/C (second compound 0.01 µM, first compound 3.16 µM) was 77.4% and the viability, T/C (second compound 0.01 µM, first compound 10 µM) was 95.5%. For the same compound, the viability, T/C [5] was 80.7%, the viability, T/C [6] was 88.6% and the viability, T/C [7] was 74.8%. It also gave a viability, T/C [8] of 94.6%, a viability, T/C [9] of 77.3% and a viability, T/C [10] of 63.1%. It also gave a viability, T/C [11] of 65.6%, a viability, T/C [12] of 74.8% and a viability, T/C [13] of 73.3%. For the same compound, the viability, T/C [14] was 75.3%, the viability, T/C [15] was 70.2% and the viability, T/C [16] was 44.5%. The viability, T/C [17] was 63.2%, the viability, T/C [18] was 53.7% and the viability, T/C [19] was 55.6%. It also gave a viability, T/C [20] of 61.9%, a viability, T/C [21] of 59.7% and a viability, T/C [22] of 40.8%. For the same compound, the viability, T/C [23] was 54.7%, the viability, T/C [24] was 61.5% and the viability, T/C [25] was 43.2%. The viability, T/C [26] was 43.9%, the viability, T/C [27] was 33.4% and the viability, T/C [28] was 20.9%.

For CCN1CCN(Cc2ccc(Nc3ncc(F)c(-c4cc(F)c5nc(C)n(C(C)C)c5c4)n3)nc2)CC1 + CC(Nc1ncnc2nc[nH]c12)c1cc2cccc(Cl)c2c(=O)n1-c1ccccc1, the IC50 [1] was greater than 1 µM, the IC50 [2] was greater than 1 µM and the IC50 [3] was greater than 1 µM. The IC50 [4] was greater than 1 µM, the IC50 [29] was greater than 1 µM and the IC50 [30] was greater than 1 µM. It also gave a viability, T/C (second compound 0.0316 µM, first compound 0.00316 µM) of 111%, a viability, T/C (second compound 0.0316 µM, first compound 0.01 µM) of 102% and a viability, T/C [5] of 109%. For the same compound, the viability, T/C [6] was 83.5%, the viability, T/C [7] was 81.6% and the viability, T/C [8] was 87%. The viability, T/C (second compound 0.1 µM, first compound 0.00316 µM) was 106%, the viability, T/C (second compound 0.1 µM, first compound 0.01 µM) was 107% and the viability, T/C [11] was 91.9%. The viability, T/C [12] was 87.7%, the viability, T/C [13] was 87% and the viability, T/C [14] was 95%. The viability, T/C (second compound 0.316 µM, first compound 0.00316 µM) was 101%, the viability, T/C (second compound 0.316 µM, first compound 0.01 µM) was 108% and the viability, T/C [17] was 94.6%. It also gave a viability, T/C [18] of 90.3%, a viability, T/C [19] of 89.7% and a viability, T/C [20] of 89.1%. For the same compound, the viability, T/C (second compound 1 µM, first compound 0.00316 µM) was 93.1%, the viability, T/C (second compound 1 µM, first compound 0.01 µM) was 92.5% and the viability, T/C [23] was 95.9%. The viability, T/C [24] was 89.4%, the viability, T/C [25] was 84.8% and the viability, T/C [26] was 102%. It also gave a viability, T/C (second compound 3.16 µM, first compound 0.00316 µM) of 95.1%, a viability, T/C (second compound 3.16 µM, first compound 0.01 µM) of 91.6% and a viability, T/C [31] of 81.1%. It also gave a viability, T/C [32] of 90.8%, a viability, T/C [33] of 82.4% and a viability, T/C [34] of 83.2%. It also gave a viability, T/C (second compound 10 µM, first compound 0.00316 µM) of 86%, a viability, T/C (second compound 10 µM, first compound 0.01 µM) of 83.5% and a viability, T/C [35] of 81.9%. The viability, T/C [36] was 82.5%, the viability, T/C [37] was 86.1% and the viability, T/C [38] was 78.2%.

C[C@@H](NC(=O)c1ncnc(N)c1Cl)c1ncc(C(=O)Nc2cc(C(F)(F)F)c(Cl)cn2)s1 + CC(Nc1ncnc2nc[nH]c12)c1cc2cccc(Cl)c2c(=O)n1-c1ccccc1 showed an IC50 [1] greater than 10 µM, an IC50 [2] greater than 10 µM and an IC50 [3] greater than 10 µM. For the same compound, the IC50 [4] was greater than 10 µM, the IC50 [29] was greater than 10 µM and the IC50 [30] was greater than 10 µM. It also gave a viability, T/C [5] of 113%, a viability, T/C [6] of 108% and a viability, T/C [7] of 117%. The viability, T/C [8] was 124%, the viability, T/C [9] was 109% and the viability, T/C [10] was 104%. It also gave a viability, T/C [11] of 123%, a viability, T/C [12] of 106% and a viability, T/C [13] of 119%. It also gave a viability, T/C [14] of 108%, a viability, T/C [15] of 123% and a viability, T/C [16] of 96%. The viability, T/C [17] was 107%, the viability, T/C [18] was 118% and the viability, T/C [19] was 103%. For the same compound, the viability, T/C [20] was 108%, the viability, T/C [21] was 126% and the viability, T/C [22] was 96.1%. The viability, T/C [23] was 115%, the viability, T/C [24] was 106% and the viability, T/C [25] was 102%. The viability, T/C [26] was 106%, the viability, T/C [27] was 126% and the viability, T/C [28] was 86.8%. The viability, T/C [31] was 92.3%, the viability, T/C [32] was 112% and the viability, T/C [33] was 95.8%. It also gave a viability, T/C [34] of 120%, a viability, T/C [39] of 123% and a viability, T/C [40] of 101%. The viability, T/C [35] was 95.5%, the viability, T/C [36] was 106% and the viability, T/C [37] was 90.9%. The viability, T/C [38] was 103%, the viability, T/C [41] was 124% and the viability, T/C [42] was 78%.

In the case of COc1c(OCCCN2CCOCC2)ccc2c3n(c(=NC(=O)c4cnc(N)nc4)nc12)CCN3, the viability, T/C (compound 0.00316 µM) is reported as 97.8% [middle of 8 runs], the viability, T/C (compound 0.01 µM) is reported as 101% [middle of 8 runs] and the viability, T/C (compound 0.0316 µM) is reported as 97.6% [middle of 8 runs]. For the same compound, the viability, T/C (compound 0.1 µM) was 77.9% [middle of 8 runs], the viability, T/C (compound 0.316 µM) was 65.8% [middle of 8 runs] and the viability, T/C (compound 1 µM) was 54.2% [middle of 8 runs]. For the same compound, the IC50 (compound alone, run of 04/25/2023) was greater than 1 µM.

Work on Cn1nccc1Nc1nccc(-c2ccn(C(CO)c3ccc(Cl)c(F)c3)c(=O)c2)n1 (stereo not given) + CC(Nc1ncnc2nc[nH]c12)c1cc2cccc(Cl)c2c(=O)n1-c1ccccc1 yielded an IC50 [1] greater than 10 µM, an IC50 [2] greater than 10 µM and an IC50 [3] greater than 10 µM. For the same compound, the IC50 [4] was greater than 10 µM, the IC50 [29] was greater than 10 µM and the IC50 [30] was greater than 10 µM. The viability, T/C [5] was 110%, the viability, T/C [6] was 102% and the viability, T/C [7] was 103%. The viability, T/C [8] was 94.5%, the viability, T/C [9] was 88.9% and the viability, T/C [10] was 85.8%. It also gave a viability, T/C [11] of 106%, a viability, T/C [12] of 100% and a viability, T/C [13] of 91.3%. It also gave a viability, T/C [14] of 93.5%, a viability, T/C [15] of 94.6% and a viability, T/C [16] of 87%. The viability, T/C [17] was 94.5%, the viability, T/C [18] was 115% and the viability, T/C [19] was 91.6%. It also gave a viability, T/C [20] of 92.7%, a viability, T/C [21] of 96.6% and a viability, T/C [22] of 56.8%. The viability, T/C [23] was 89.5%, the viability, T/C [24] was 103% and the viability, T/C [25] was 94.6%. It also gave a viability, T/C [26] of 85.4%, a viability, T/C [27] of 94% and a viability, T/C [28] of 81.4%. For the same compound, the viability, T/C [31] was 79.2%, the viability, T/C [32] was 86.2% and the viability, T/C [33] was 95%. For the same compound, the viability, T/C [34] was 93.8%, the viability, T/C [39] was 106% and the viability, T/C [40] was 84.6%. The viability, T/C [35] was 90%, the viability, T/C [36] was 80% and the viability, T/C [37] was 78.9%. For the same compound, the viability, T/C [38] was 87.2%, the viability, T/C [41] was 80.7% and the viability, T/C [42] was 66.3%.
